For the test, the target named is T1, human LXRβ (AA 153-461) LBD (Homo sapiens, UniProt P55055).
T1 construct: pM human LXRβ (AA 153-461) LBD plasmid; expressed in transfected cells; host or cells: HEK 293
T1 sequence (P55055 153-460 limits assumed): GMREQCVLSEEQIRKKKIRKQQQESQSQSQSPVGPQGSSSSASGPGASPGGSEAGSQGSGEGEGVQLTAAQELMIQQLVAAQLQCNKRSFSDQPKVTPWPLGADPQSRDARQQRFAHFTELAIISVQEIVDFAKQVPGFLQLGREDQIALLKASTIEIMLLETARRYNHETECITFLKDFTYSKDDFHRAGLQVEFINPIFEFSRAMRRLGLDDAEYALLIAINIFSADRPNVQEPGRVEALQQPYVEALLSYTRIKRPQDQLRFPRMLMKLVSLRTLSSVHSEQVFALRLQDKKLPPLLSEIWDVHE
Nature of the test: Gal4 LXRβ cotransfection assay (LXRβ Gal fusion assay). Type of test: cell-based. The settings on record: HEK 293 cells, Gal4-responsive luciferase reporter, compounds 0.01-10 μM. As for the experimental part:
For transient transfection of HEK 293 cells, 6×10^3 cells were plated into 96-well dishes. Each well was transfected with 25 ng 5×UAS-luciferase reporter (pG5luc) and 25 ng of pM human LXRβ (AA 153-461) LBD plasmid using Fugene 6 reagent (Roche; Indianapolis, Ind.). The chimeric protein was assessed for the ability to transactivate a Gal4-responsive luciferase reporter plasmid in a concentration-responsive manner to compounds (0.01-10 μM). Luciferase activity at each dose concentration was measured in triplicate using standard substrate reagents (BD Biosciences; San Diego, Calif.). Data are expressed as relative light units and are shown below in Table 1.
In general terms: Reporter assays use an easily measured gene product as a stand-in for the process of interest.

As a reminder, the EC50 is the concentration at which the effect is half-maximal. The low end stands for higher potency in that assay, the high end for lower potency in that assay.

The molecule `CCOC(=O)Cn1nc(C(F)(F)F)cc1-c1ccc(-c2ccc(CO)c(S(C)(=O)=O)c2)cc1` [Compound 51, ethyl 2-(5-(4′-(hydroxymethyl)-3′-(methylsulfonyl)biphenyl-4-yl)-3-(trifluoromethyl)-1H-pyrazol-1-yl)acetate] displayed an EC50 of less than 1 µM. As for `CCOC(=O)Cn1nc(C(F)(F)F)cc1-c1ccc(-c2cccc(S(C)(=O)=O)c2)s1` [Compound 16, ethyl 2-(5-(5-(3-(methylsulfonyl)phenyl)thiophen-2-yl)-3-(trifluoromethyl)-1H-pyrazol-1-yl)acetate], the figure is less than 1 µM; as for `COC(=O)c1cc(-c2nnc(-c3cccc(S(C)(=O)=O)c3)s2)n(-c2ccccc2Cl)n1` [Compound 9, methyl 1-(2-chlorophenyl)-5-(5-(3-(methylsulfonyl)phenyl)-1,3,4-thiadiazol-2-yl)-1H-pyrazole-3-carboxylate], 1 to 10 µM. With `CC(C)OC(=O)Cn1nc(C(F)(F)F)cc1-c1ccc(-c2cccc(S(C)(=O)=O)c2)s1` [Compound 49] the figure was less than 1 µM; with `CCOC(=O)Cn1nc(C(F)(F)F)cc1-c1ccc(-c2ccc(CO)c(S(C)(=O)=O)c2)s1` [Compound 50, ethyl 2-(5-(5-(4-(hydroxymethyl)-3-(methylsulfonyl)phenyl)thiophen-2-yl)-3-(trifluoromethyl)-1H-pyrazol-1-yl)acetate], less than 1 µM. As for `CCOC(=O)Cn1nc(C(F)(F)F)cc1-c1ccc(-c2cccc(S(C)(=O)=O)c2)cc1` [Compound 36, ethyl 2-(5-(3′-(methylsulfonyl)-[1,1′-biphenyl]-4-yl)-3-(trifluoromethyl)-1H-pyrazol-1-yl)acetate], the figure is less than 1 µM; as for `CS(=O)(=O)c1cccc(-c2nnc(-c3cc(C(=O)O)nn3-c3ccccc3Cl)s2)c1` [Compound 10, 1-(2-chlorophenyl)-5-(5-(3-(methylsulfonyl)phenyl)-1,3,4-thiadiazol-2-yl)-1H-pyrazole-3-carboxylic acid], greater than 10 µM; as for `CS(=O)(=O)c1cccc(-c2ccc(-c3cc(C(F)(F)F)nn3CC(=O)OCCl)s2)c1` [Compound 52, chloromethyl 2-(5-(5-(3-(methylsulfonyl)phenyl)thiophen-2-yl)-3-(trifluoromethyl)-1H-pyrazol-1-yl)acetate], less than 1 µM. `COC(=O)Cn1nc(C(F)(F)F)cc1-c1ccc(-c2cccc(S(C)(=O)=O)c2)s1` [Compound 18, methyl 2-(5-(5-(3-(methylsulfonyl)phenyl)thiophen-2-yl)-3-(trifluoromethyl)-1H-pyrazol-1-yl)acetic acid] had an EC50 greater than 10 µM. Molecule `CSCOC(=O)Cn1nc(C(F)(F)F)cc1-c1ccc(-c2cccc(S(C)(=O)=O)c2)cc1` [Compound 41, methylthiomethyl 2-(5-(3′-(methylsulfonyl)biphenyl-4-yl)-3-(trifluoromethyl)-1H-pyrazol-1-yl)acetate] returned an EC50 of 1 to 10 µM. As for `CS(=O)(=O)c1cccc(-c2nnc(-c3cc(C(=O)O)nn3-c3ccccc3Cl)o2)c1` [Compound 12, 1-(2-chlorophenyl)-5-(5-(3-(methylsulfonyl)phenyl)-1,3,4-oxadiazol-2-yl)-1H-pyrazole-3-carboxylic acid], the figure is greater than 10 µM; as for `CS(=O)(=O)c1cccc(-c2ccc(-c3cc(C(F)(F)F)nn3CC(=O)O)cc2)c1` [Compound 38, 2-(5-(3′-(methylsulfonyl)-[1,1′-biphenyl]-4-yl)-3-(trifluoromethyl)-1H-pyrazol-1-yl)acetic acid], greater than 10 µM. For the molecule `COC(=O)c1cc(-c2nnc(-c3cccc(S(C)(=O)=O)c3)o2)n(-c2ccccc2Cl)n1` [Compound 11, methyl 1-(2-chlorophenyl)-5-(5-(3-(methylsulfonyl)phenyl)-1,3,4-oxadiazol-2-yl)-1H-pyrazole-3-carboxylate], the EC50 was less than 1 µM.

Values taken from patent publication US9637481B2 (RALEXAR THERAPEUTICS, INC., priority 2012, dated 2017).
